Experimental data published in patent US20080153896A1, “Polymorphic Forms of an HMG-CoA Reductase Inhibitor and Uses Thereof” (priority 2006, published 2008).

Test: Stability (integrity) testing of amorphous and polymorphic form under storage conditions, RP-HPLC
Format: physicochemical
Set-up: Impurity RRT 1.104 / Impurity RRT 1.698: unit not given beside the values
Description: The integrity of the different forms of the (3R, 5R)-7-[2-(4-fluorophenyl)-5-isopropyl-3-phenyl-4-[(4-hydroxymethylphenylamino)carbonyl]-pyrrol-1-yl]-3,5-dihydroxy-heptanoic acid, hemi calcium salt, was tested under different atmospheric conditions to determine the stability of the amorphous and polymorphic form of the drug in various storage environments. Reversed Phase-HPLC (RP-HPLC) was used to separate (3R, 5R)-7-[2-(4-fluorophenyl)-5-isopropyl-3-phenyl-4-[(4-hydroxymethylphenylamino)carbonyl]-pyrrol-1-yl]-3,5-dihydroxy-heptanoic acid, hemi calcium salt, from smaller molecules representing breakdown products as well as oxidized drug. The relative amount of the drug was reported as a percent of total absorption by UV. The total peak area of all UV absorption impurities was used to define total impurity of the drug. Impurities are defined by their relative retention time (RRT) compared to native drug. Samples were injected onto a C18 column using standard temperature, gradient and run-time conditions.
The results of this integrity testing for the amorphous form of (3R, 5R)-7-[2-(4-fluorophenyl)-5-isopropyl-3-phenyl-4-[(4-hydroxymethylphenylamino)carbonyl]-pyrrol-1-yl]-3,5-dihydroxy-heptanoic acid, hemi calcium salt, is shown in Table 5.
Three separate batches of polymorphic Form I of (3R, 5R)-7-[2-(4-fluorophenyl)-5-isopropyl-3-phenyl-4-[(4-hydroxymethylphenylamino)carbonyl]-pyrrol-1-yl]-3,5-dihydroxy-heptanoic acid, hemi calcium salt, were prepared and tested under the same atmospheric conditions described for the amorphous form.

[1] = 25° C./60% RH 3M, hemi calcium salt
[2] = 25° C./60% RH 9M, hemi calcium salt

## CC(C)c1c(C(=O)Nc2ccc(CO)cc2)c(-c2ccccc2)c(-c2ccc(F)cc2)n1CC[C@@H](O)C[C@@H](O)CC(=O)[O-].CC(C)c1c(C(=O)Nc2ccc(CO)cc2)c(-c2ccccc2)c(-c2ccc(F)cc2)n1CC[C@@H](O)C[C@@H](O)CC(=O)[O-].[Ca+2] [PP00105, (3R, 5R)-7-[2-(4-fluorophenyl)-5-isopropyl-3-phenyl-4-[(4-hydroxymethylphenylamino)carbonyl]-pyrrol-1-yl]-3,5-dihydroxy-heptanoic acid, hemi calcium salt]
5° C. 1M
  Description: White
  Impurity RRT 1.096: 0.248
  Impurity RRT 1.183: 0.051
  Impurity RRT 1.439: 0.17
  Impurity RRT 1.596: 0.086
  Impurity RRT 1.698: 0.068
5° C. 1M, hemi calcium salt
  Assay: 98.36 % W/W
  Highest Impurity: 0.459
  Impurity RRT 0.935: 0.412
  Impurity RRT 1.045: 0.459
  Impurity RRT 1.64: 0.063
  Total Impurity: 1.56
  Water: 4.45 % W/W
5° C. 2M
  Description: White
  Impurity RRT 1.096: 0.233
  Impurity RRT 1.183: 0.06
  Impurity RRT 1.439: 0.163
  Impurity RRT 1.596: 0.079
  Impurity RRT 1.698: 0.07
5° C. 2M, hemi calcium salt
  Assay: 98.24 % W/W
  Highest Impurity: 0.443
  Impurity RRT 0.935: 0.413
  Impurity RRT 1.045: 0.443
  Impurity RRT 1.64: 0.06
  Total Impurity: 1.52
  Water: 4.31 % W/W
5° C. 3M
  Description: White
  Impurity RRT 1.096: 0.216
  Impurity RRT 1.439: 0.150
  Impurity RRT 1.596: 0.068
  Impurity RRT 1.698: 0.068
  Total Impurity: 1.35
5° C. 3M, hemi calcium salt
  Assay: 98.19 % W/W
  Highest Impurity: 0.414
  Impurity RRT 0.935: 0.376
  Impurity RRT 1.045: 0.414
  Impurity RRT 1.64: 0.055
  Water: 3.90 % W/W
5° C. 4M
  Description: White
  Impurity RRT 0.138: 0.228
  Impurity RRT 1.096: 0.205
  Impurity RRT 1.439: 0.159
  Impurity RRT 1.596: 0.060
  Impurity RRT 1.698: 0.052
5° C. 4M, hemi calcium salt
  Assay: 98.17 % W/W
  Highest Impurity: 0.427
  Impurity RRT 0.935: 0.341
  Impurity RRT 1.045: 0.427
  Impurity RRT 1.640: 0.051
  Total Impurity: 1.523
  Water: 5.08 % W/W
5° C. 5M
  Description: White
  Impurity RRT 0.138: 0.22
  Impurity RRT 1.096: 0.236
  Impurity RRT 1.439: 0.122
  Impurity RRT 1.596: 0.054
  Impurity RRT 1.698: 0.065
5° C. 5M, hemi calcium salt
  Assay: 98.27 % W/W
  Highest Impurity: 0.401
  Impurity RRT 0.935: 0.373
  Impurity RRT 1.045: 0.401
  Impurity RRT 1.640: 0.047
  Total Impurity: 1.527
  Water: 4.67 % W/W
5° C. 6M
  Description: White
  Impurity RRT 0.138: 0.238
  Impurity RRT 1.096: 0.189
  Impurity RRT 1.183: 0.056
  Impurity RRT 1.439: 0.146
  Impurity RRT 1.596: 0.080
  Impurity RRT 1.698: 0.059
  Water: 5.04 % W/W
5° C. 6M, hemi calcium salt
  Assay: 98.61 % W/W
  Highest Impurity: 0.438
  Impurity RRT 0.935: 0.373
  Impurity RRT 1.045: 0.438
  Impurity RRT 1.640: 0.048
  Total Impurity: 1.627
5° C. 9M
  Description: White
  Impurity RRT 0.138: 0.228
  Impurity RRT 1.096: 0.205
  Impurity RRT 1.439: 0.188
  Impurity RRT 1.596: 0.061
  Impurity RRT 1.698: 0.082
5° C. 9M, hemi calcium salt
  Assay: 97.96 % W/W
  Highest Impurity: 0.400
  Impurity RRT 0.935: 0.366
  Impurity RRT 1.045: 0.400
  Impurity RRT 1.640: 0.056
  Total Impurity: 1.586
  Water: 4.64 % W/W
5° C. 12M
  Description: White
  Impurity RRT 0.138: 0.259
  Impurity RRT 1.096: 0.208
  Impurity RRT 1.183: 0.033
  Impurity RRT 1.439: 0.141
  Impurity RRT 1.596: 0.053
  Impurity RRT 1.698: 0.045
5° C. 12M, hemi calcium salt
  Assay: 98.27 % W/W
  Highest Impurity: 0.412
  Impurity RRT 0.935: 0.392
  Impurity RRT 1.045: 0.412
  Impurity RRT 1.640: 0.050
  Total Impurity: 1.593
  Water: 5.03 % W/W
25° C./60% RH 3M
  Description: White
  Impurity RRT 1.096: 0.214
  Impurity RRT 1.439: 0.158
  Impurity RRT 1.596: 0.067
  Impurity RRT 1.698: 0.065
[1]
  Assay: 98.15 % W/W
  Highest Impurity: 0.427
  Impurity RRT 0.935: 0.383
  Impurity RRT 1.045: 0.427
  Impurity RRT 1.64: 0.051
  Total Impurity: 1.37
  Water: 4.74 % W/W
25° C./60% RH 6M
  Assay: 98.15 % W/W
  Description: White
  Highest Impurity: 0.405
  Impurity RRT 0.138: 0.113
  Impurity RRT 0.935: 0.338
  Impurity RRT 1.045: 0.405
  Impurity RRT 1.096: 0.233
  Impurity RRT 1.439: 0.142
  Impurity RRT 1.596: 0.066
  Impurity RRT 1.640: 0.035
  Impurity RRT 1.698: 0.056
  Total Impurity: 1.388
  Water: 5.04 % W/W
25° C./60% RH 9M
  Description: White
  Impurity RRT 0.138: 0.111
  Impurity RRT 1.096: 0.212
  Impurity RRT 1.183: 0.039
  Impurity RRT 1.439: 0.155
  Impurity RRT 1.596: 0.042
  Impurity RRT 1.698: 0.063
[2]
  Assay: 98.06 % W/W
  Highest Impurity: 0.389
  Impurity RRT 0.935: 0.375
  Impurity RRT 1.045: 0.389
  Impurity RRT 1.640: 0.045
  Total Impurity: 1.431
  Water: 5.31 % W/W
25° C./60% RH 12M
  Description: White
  Impurity RRT 0.138: 0.199
  Impurity RRT 1.096: 0.212
  Impurity RRT 1.183: 0.036
